The nature of series [1]: Equilibrium solubility in water, potentiometric (pH-metric) CheqSol method. It counts as physicochemical. As to conditions: for solubility: thermodynamic from solid, read-out: equilibrium concentration (solubility, S). Here is the method: Solubility (S) measurements were conducted in water using the CheqSol system at five temperatures: 15 °C, 25 °C, 35 °C, 45 °C, and 55 °C. However, due to the hydrolytic instability of Tegoprazan at elevated temperatures and the pH-dependent nature of the CheqSol assay, reliable measurements could only be obtained at 15 °C and 25 °C. Based on the equilibrium solubility values at these two temperatures, the enthalpy of solution (ΔHsol) was estimated for each polymorph using van’t Hoff plots of ln(S) versus 1/T.
Solubility measurements were performed using the potentiometric (pH-metric) method with the CheqSol system (T3, Sirius Analytical Instruments Ltd., Portsmouth, UK). Unlike pKa determinations, solubility assays require relatively high sample concentrations to ensure saturation across a broad pH range (typically, pH 2 to 12). In this method, the solution is intentionally brought into a supersaturated state to establish “crossing points,” from which the intrinsic (equilibrium) solubility is calculated based on the concentration of the neutral species predominating at specific pH levels. The high initial concentration of the sample promotes supersaturation, leading to precipitation at pH values corresponding to the compound’s pKa. This onset of precipitation reflects the kinetic solubility, which can be characterized by various physicochemical parameters, including the pKa value, saturated pH, sample concentration, temperature, and crystallinity. This study aimed to investigate the temperature dependence of solubility for Polymorphs A and B. Measurements were conducted at five temperatures: 15 °C, 25 °C, 35 °C, 45 °C, and 55 °C.

The nature of series [2]: Stability of polymorphs under accelerated conditions, followed by DSC and XRD. The class given is physicochemical. Conditions: 40 ± 2 °C, relative humidity 75 ± 5 %, 8-week period; changes seen in the eighth week. Here is the method: As a case in point, the stability of the two Tegoprazan polymorphs was evaluated under accelerated conditions (temperature: 40 ± 2 °C, relative humidity: 75 ± 5 HR%) over an 8-week period, with observations for any significant changes conducted using DSC (Differential Scanning Calorimetry) and XRD (X-ray diffraction). […] Therefore, it is essential to elucidate the details of this phenomenon. For quantitative phase analysis and similar studies, knowledge of the crystal structure is crucial. However, the crystal structures of Polymorphs A and B remain unresolved. In response to this need, we explored a practical approach to crystal structure analysis by utilizing readily available powder samples, laboratory-scale XRD instruments, and cost-efficient Rietveld refinement software specifically EXPO2014 (expo version 1.22.11). The known method of SDPD (Structure Determination from Powder Diffraction) was considered as one potential solution to address these challenges. While X-ray diffraction often utilizes synchrotron radiation or other advanced accelerator-based facilities, the crystal structures of Tegoprazan Polymorphs A and B were analyzed using laboratory-based X-ray diffraction (XRD) equipment and powdered samples. This approach was chosen for the following reasons: […]
(In DSC, transitions show as peaks or steps in heat flow.)

In brackets after ≈: the same amount, converted by molar mass. Read-outs that look alike come from different tables or passages of the source.

On to `Cc1nc2c(OC3CCOc4cc(F)cc(F)c43)cc(C(=O)N(C)C)cc2[nH]1` [Polymorph A, (S)-4-((5,7-difluorochroman-4-yl)oxy)-N,N,2-trimethyl-1H-benzo[d]imidazole-6-formamide], for which the solubility in series [1] (15 °C, 15 °C) came out at 1250 µM (≈ 483 µg/mL); in series [1] (25 °C, 25 °C), 1440 µM (≈ 557 µg/mL). Besides, in series [2], the “solid-state stability (changes by DSC and XRD)” value is on record as “No changes”.
Consider `Cc1nc2c(OC3CCOc4cc(F)cc(F)c43)cc(C(=O)N(C)C)cc2[nH]1` [Polymorph B, (S)-4-((5,7-difluorochroman-4-yl)oxy)-N,N,2-trimethyl-1H-benzo[d]imidazole-6-formamide], for which the “equilibrium concentration (solubility, S)” value in series [1] (15 °C) stood at 1476 µM; in series [1] (25 °C), 2118 µM. Besides, in series [2], the “solid-state stability (changes by DSC and XRD)” value is recorded as “phase transition to Polymorph A”.

For the origin of these results see article PMC11990383, “Structure Determination of Tegoprazan((S)-4-((5,7-difluorochroman-4-yl)oxy)-N,N,2-trimethyl-1H-benzo[d]imidazole-6-formamide) Polymorphs A and B by Laboratory X-Ray Powder Diffraction” (Molecules, 2025).
